Measurements as given in ChEMBL document CHEMBL1136114, “Advances Toward new antidepressants beyond SSRIs: 1-aryloxy-3-piperidinylpropan-2-ols with dual 5-HT(1A) receptor antagonism/SSRI activities. Part 2” (Bioorg Med Chem Lett, 2003).

How the values were obtained:
[1] = target: T1, 5-hydroxytryptamine receptor 1A (Homo sapiens, UniProt P08908); assay: (§1) Inhibition of 5-HT induced [35S]GTP-gamma-S, binding at human cloned 5-HT 1A receptors.; format: functional
T1 sequence (P08908 whole entry): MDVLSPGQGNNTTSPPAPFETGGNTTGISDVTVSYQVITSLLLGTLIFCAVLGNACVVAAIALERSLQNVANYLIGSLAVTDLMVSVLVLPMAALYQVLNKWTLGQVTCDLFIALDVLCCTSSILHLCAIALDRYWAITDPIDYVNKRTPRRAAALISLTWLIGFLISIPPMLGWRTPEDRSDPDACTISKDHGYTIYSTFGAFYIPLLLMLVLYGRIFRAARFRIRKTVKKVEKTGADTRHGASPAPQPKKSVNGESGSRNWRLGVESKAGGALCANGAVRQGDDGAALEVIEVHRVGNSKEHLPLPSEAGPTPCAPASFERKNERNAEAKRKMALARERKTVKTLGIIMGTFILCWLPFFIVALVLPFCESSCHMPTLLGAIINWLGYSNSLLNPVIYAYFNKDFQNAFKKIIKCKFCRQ

[2] = target: T2, 5-hydroxytryptamine receptor 1A (Homo sapiens) (UniProt P08908); assay: Stimulation of binding of [35S]GTP-gamma-S, to G protein mediated by human cloned 5-hydroxytryptamine 1A receptor tested in vitro at 1 uM.; format: functional
T2 sequence (whole entry): T1 sequence (P08908 whole entry)

[3] = target: T1, 5-hydroxytryptamine receptor 1A; assay: In vitro binding affinity at 5-hydroxytryptamine 1A receptor by [3H]8-OH-DPAT displacement.
[4] = target: Sodium-dependent serotonin transporter (Rattus norvegicus, UniProt P31652); assay: In vitro affinity at the 5-HT reuptake site using [3H]paroxetine as radioligand in rat frontal cortex membranes; format: cell membranes, Membrane
[5] = target: T2, 5-hydroxytryptamine receptor 1A (Homo sapiens); assay: as §1; format: functional
[6] = target: T2, 5-hydroxytryptamine receptor 1A (Homo sapiens); assay: In vitro binding affinity towards 5-hydroxytryptamine 1A receptor using [3H]8-OH-DPAT as radioligand; conditions: concentration not given here

Chain of Sodium-dependent serotonin transporter (P31652 whole entry): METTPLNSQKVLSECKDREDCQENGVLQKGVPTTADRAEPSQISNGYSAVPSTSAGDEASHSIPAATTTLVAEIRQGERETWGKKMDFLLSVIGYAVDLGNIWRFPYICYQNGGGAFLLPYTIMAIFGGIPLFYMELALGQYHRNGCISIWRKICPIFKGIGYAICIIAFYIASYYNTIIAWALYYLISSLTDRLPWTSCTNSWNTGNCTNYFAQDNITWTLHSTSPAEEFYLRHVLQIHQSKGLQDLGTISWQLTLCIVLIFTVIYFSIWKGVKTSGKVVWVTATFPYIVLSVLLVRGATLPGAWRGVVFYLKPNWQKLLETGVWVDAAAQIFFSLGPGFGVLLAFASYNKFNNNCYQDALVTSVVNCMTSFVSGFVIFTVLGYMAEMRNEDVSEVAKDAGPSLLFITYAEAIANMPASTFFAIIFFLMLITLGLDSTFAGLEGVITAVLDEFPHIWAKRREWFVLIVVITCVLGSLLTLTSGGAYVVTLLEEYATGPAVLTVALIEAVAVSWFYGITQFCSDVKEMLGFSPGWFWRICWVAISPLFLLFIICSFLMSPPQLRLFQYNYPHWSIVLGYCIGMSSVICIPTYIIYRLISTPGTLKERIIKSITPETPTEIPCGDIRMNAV

C[C@H]1C[C@H](c2cc3cc(F)ccc3s2)CCN1C[C@H](O)COc1cccc2[nH]ccc12
Ki [1]: 5.67 nM | Stimulation [2]: 7.68% | Ki [3]: 6.4 nM | Ki [4]: 0.39 nM | Emin [5]: 7.69%

COc1cccc2sc([C@H]3CCN(C[C@H](O)COc4cccc5[nH]ccc45)[C@H](C)C3)cc12
Stimulation [2]: 4.41% | Emin [5]: 5.97%

C[C@H]1C[C@H](c2cc3ccc(F)cc3s2)CCN1C[C@H](O)COc1cccc2[nH]ccc12
Ki [1]: 7.45 nM | Stimulation [2]: 5.32% | Ki [3]: 5.52 nM | Ki [4]: 0.31 nM | Emin [5]: 9%

C[C@H]1C[C@H](c2cc3cccc(F)c3s2)CCN1C[C@H](O)COc1cccc2[nH]ccc12
Ki [1]: 4.23 nM | Stimulation [2]: 2.66% | Ki [3]: 21.9 nM | Ki [4]: 3.47 nM | Emin [5]: 6.8%

C[C@H]1C[C@@H](c2cc3cc(F)ccc3s2)CCN1C[C@H](O)COc1cccc2[nH]ccc12
Ki [1]: 16.5 nM | Stimulation [2]: 3.24% | Ki [3]: 36.8 nM | Ki [4]: 4.22 nM | Emin [5]: 7.87%

COc1ccc2cc([C@@H]3CCN(C[C@H](O)COc4cccc5[nH]ccc45)[C@@H](C)C3)sc2c1
Ki [1]: 2.98 nM | Stimulation [2]: 5.26% | Ki [3]: 14.5 nM | Ki [4]: 1.1 nM | Emin [5]: 6.67%

C[C@H]1C[C@H](c2cc3c(C(F)(F)F)cccc3s2)CCN1C[C@H](O)COc1cccc2[nH]ccc12
Ki [3]: 24.2 nM | Ki [4]: 3.46 nM

C[C@H]1C[C@H](c2cc3ccc(Cl)cc3s2)CCN1C[C@H](O)COc1cccc2[nH]ccc12
Ki [1]: 11.7 nM | Stimulation [2]: 8.49% | Ki [3]: 24.8 nM | Ki [4]: 1.1 nM | Emin [5]: 7.99%

C[C@H]1C[C@H](c2cc3c(F)cccc3s2)CCN1C[C@H](O)COc1cccc2[nH]ccc12
Ki [1]: 4.88 nM | Stimulation [2]: 5.37% | Ki [4]: 1.16 nM | Emin [5]: 7.44%

COc1cccc2sc([C@@H]3C[C@H]4CC[C@@H](C3)N4C[C@H](O)COc3cccc4[nH]ccc34)cc12 (stereo in doubt; endo) [listing 1 of 2 here]
Ki [4]: 0.17 nM

C[C@H]1C[C@H](c2cc3c(Cl)cccc3s2)CCN1C[C@H](O)COc1cccc2[nH]ccc12
Ki [4]: 0.69 nM | inhibition [6]: < 50%

C[C@H]1C[C@H](c2cc3cc(Cl)ccc3s2)CCN1C[C@H](O)COc1cccc2[nH]ccc12
Ki [1]: 5.26 nM | Stimulation [2]: 3.97% | Ki [3]: 8.34 nM | Ki [4]: 0.58 nM | Emin [5]: 6.81%

COc1cccc2sc([C@@H]3C[C@H]4CC[C@@H](C3)N4C[C@H](O)COc3cccc4[nH]ccc34)cc12 (stereo in doubt; exo) [listing 1 of 2 here]
Stimulation [2]: 7.22% | Emin [5]: 4.02%

COc1cccc2sc([C@@H]3C[C@H]4CC[C@@H](C3)N4C[C@H](O)COc3cccc4[nH]ccc34)cc12 (stereo in doubt; endo) [listing 2 of 2 here]
inhibition [6]: > 50%

C[C@@H]1C[C@@H](c2cc3cc(F)ccc3s2)CCN1C[C@H](O)COc1cccc2[nH]ccc12
Ki [1]: 16.7 nM | Stimulation [2]: 6.35% | Ki [3]: 11.7 nM | Ki [4]: 0.99 nM | Emin [5]: 10.5%

COc1cccc2sc([C@H]3CCN(C[C@H](O)COc4cccc5[nH]ccc45)[C@@H](C)C3)cc12
Stimulation [2]: 1.38% | Emin [5]: 1.43%

O[C@H](COc1cccc2[nH]ccc12)CN1[C@@H]2CC[C@H]1C[C@H](c1cc3ccccc3s1)C2
Ki [1]: 70.1 nM | Stimulation [2]: 9.26% | Ki [3]: 30.5 nM | Ki [4]: 0.07 nM | Emin [5]: 9.4%

COc1cccc2sc([C@@H]3CCN(C[C@H](O)COc4cccc5[nH]ccc45)[C@@H](C)C3)cc12
Stimulation [2]: 7.77%

COc1ccc2sc([C@@H]3CCN(C[C@H](O)COc4cccc5[nH]ccc45)[C@@H](C)C3)cc2c1OC
Ki [1]: 0.98 nM | Stimulation [2]: 8.38% | Ki [3]: 1.3 nM | Ki [4]: 10.8 nM | Emin [5]: 4.8%

COc1cccc2sc([C@@H]3CCN(C[C@H](O)COc4cccc5[nH]ccc45)[C@H](C)C3)cc12
Stimulation [2]: 1.2% | Emin [5]: 2.01%

Cc1cccc2sc([C@@H]3CCN(C[C@H](O)COc4cccc5[nH]ccc45)[C@@H](C)C3)cc12
Ki [1]: 8.75 nM | Stimulation [2]: 8.48% | Ki [3]: 6.85 nM | Ki [4]: 0.44 nM | Emin [5]: 4.96%

Cc1ccc2cc([C@@H]3CCN(C[C@H](O)COc4cccc5[nH]ccc45)[C@@H](C)C3)sc2c1
Ki [4]: 2.24 nM | inhibition [6]: < 50%

Cc1cc(C)c2cc([C@@H]3CCN(C[C@H](O)COc4cccc5[nH]ccc45)[C@@H](C)C3)sc2c1
Ki [3]: 94.9 nM | Ki [4]: 1.93 nM

C[C@H]1C[C@H](c2cc3ccccc3s2)CCN1C[C@H](O)COc1cccc2[nH]ccc12
Ki [1]: 3.28 nM | Stimulation [2]: 6.32% | Ki [3]: 3.09 nM | Ki [4]: 0.51 nM | Emin [5]: 7.5%

COc1cccc2sc([C@@H]3C[C@H]4CC[C@@H](C3)N4C[C@H](O)COc3cccc4[nH]ccc34)cc12 (stereo in doubt; exo) [listing 2 of 2 here]
Ki [1]: 18.7 nM | Ki [3]: 15.7 nM | Ki [4]: 1.31 nM

C[C@@H]1C[C@H](c2cc3cc(F)ccc3s2)CCN1C[C@H](O)COc1cccc2[nH]ccc12
Ki [1]: 1.76 nM | Stimulation [2]: 7.21% | Ki [3]: 8.77 nM | Ki [4]: 3.53 nM | Emin [5]: 10.8%
